Test results reported in paper PMC9908924, “Accelerating inhibitor discovery for deubiquitinating enzymes” (Nature Communications, 2023).
pIC50: −log10 of the molar value. Values belong to the compound of their own block, whether it stands above or below them.

Columns and labels:
UCHL1 = molecular target: T1, UCHL1 (Homo sapiens, UniProt P09936); experiment: active-site cysteine modification (in-house validation); format: binding; conditions: covalent
T1 construct: full length residues 1-223, N-terminal GST tag (pGEX6P1), 3C protease elution, E. coli BL21(DE3)
T1 sequence (P09936 1-223): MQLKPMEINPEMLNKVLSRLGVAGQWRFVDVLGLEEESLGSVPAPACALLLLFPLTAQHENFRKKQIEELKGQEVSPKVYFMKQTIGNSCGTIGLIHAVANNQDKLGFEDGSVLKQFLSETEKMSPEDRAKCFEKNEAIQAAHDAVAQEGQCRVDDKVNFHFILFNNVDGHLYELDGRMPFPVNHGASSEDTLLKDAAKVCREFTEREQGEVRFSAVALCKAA

USP40 = molecular target: T2, USP40 (Homo sapiens, UniProt Q9NVE5); experiment: DUB-ABPP competition with biotin-Ub-PA / biotin-Ub-VME, TMT MS; format: biochemical; conditions: chloroacetamide; 10 µM
T2 construct: endogenous full-length protein in HEK293T lysate
T2 sequence (Q9NVE5 1-1235): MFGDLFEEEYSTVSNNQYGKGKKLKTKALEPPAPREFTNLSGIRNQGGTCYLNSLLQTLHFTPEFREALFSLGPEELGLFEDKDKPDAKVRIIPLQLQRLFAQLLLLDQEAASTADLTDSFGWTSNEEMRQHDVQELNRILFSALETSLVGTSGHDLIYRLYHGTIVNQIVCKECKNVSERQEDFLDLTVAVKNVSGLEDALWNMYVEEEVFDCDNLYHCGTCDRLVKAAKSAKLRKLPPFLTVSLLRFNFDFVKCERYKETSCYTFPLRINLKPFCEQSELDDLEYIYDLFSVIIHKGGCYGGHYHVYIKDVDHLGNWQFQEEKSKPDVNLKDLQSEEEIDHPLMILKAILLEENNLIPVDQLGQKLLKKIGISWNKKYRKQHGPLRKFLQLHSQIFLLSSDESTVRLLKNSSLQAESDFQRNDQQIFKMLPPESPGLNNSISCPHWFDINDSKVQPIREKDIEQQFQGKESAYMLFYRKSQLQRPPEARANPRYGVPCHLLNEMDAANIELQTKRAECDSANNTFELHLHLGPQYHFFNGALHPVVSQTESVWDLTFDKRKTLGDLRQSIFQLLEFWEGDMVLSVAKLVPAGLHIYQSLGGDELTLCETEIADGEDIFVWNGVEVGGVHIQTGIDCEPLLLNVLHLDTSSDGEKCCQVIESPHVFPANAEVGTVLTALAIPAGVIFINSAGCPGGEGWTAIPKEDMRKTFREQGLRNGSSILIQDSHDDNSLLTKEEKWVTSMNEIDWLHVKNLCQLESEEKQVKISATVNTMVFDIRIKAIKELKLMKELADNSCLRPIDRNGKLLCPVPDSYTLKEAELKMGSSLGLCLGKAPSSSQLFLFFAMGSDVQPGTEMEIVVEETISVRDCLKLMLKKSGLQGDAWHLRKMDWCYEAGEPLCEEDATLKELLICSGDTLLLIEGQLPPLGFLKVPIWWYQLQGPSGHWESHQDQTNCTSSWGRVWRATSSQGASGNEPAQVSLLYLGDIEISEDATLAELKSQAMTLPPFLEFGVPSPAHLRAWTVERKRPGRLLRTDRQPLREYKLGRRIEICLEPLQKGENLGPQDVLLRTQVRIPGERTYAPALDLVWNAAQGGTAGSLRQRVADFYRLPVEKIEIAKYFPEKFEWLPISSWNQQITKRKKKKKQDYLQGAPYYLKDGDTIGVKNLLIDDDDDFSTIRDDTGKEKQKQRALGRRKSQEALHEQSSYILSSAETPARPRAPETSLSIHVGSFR

VCPIP1 = molecular target: T3, VCPIP1 (Homo sapiens, UniProt Q96JH7); experiment: targeted cysteine chemoproteomics (PRM-LIVE); format: biochemical; conditions: covalent (catalytic cysteine); 50 µM compound in cell extract
T3 construct: endogenous full-length protein in HEK293 / HEK293T cell extract
T3 sequence (Q96JH7 1-1222): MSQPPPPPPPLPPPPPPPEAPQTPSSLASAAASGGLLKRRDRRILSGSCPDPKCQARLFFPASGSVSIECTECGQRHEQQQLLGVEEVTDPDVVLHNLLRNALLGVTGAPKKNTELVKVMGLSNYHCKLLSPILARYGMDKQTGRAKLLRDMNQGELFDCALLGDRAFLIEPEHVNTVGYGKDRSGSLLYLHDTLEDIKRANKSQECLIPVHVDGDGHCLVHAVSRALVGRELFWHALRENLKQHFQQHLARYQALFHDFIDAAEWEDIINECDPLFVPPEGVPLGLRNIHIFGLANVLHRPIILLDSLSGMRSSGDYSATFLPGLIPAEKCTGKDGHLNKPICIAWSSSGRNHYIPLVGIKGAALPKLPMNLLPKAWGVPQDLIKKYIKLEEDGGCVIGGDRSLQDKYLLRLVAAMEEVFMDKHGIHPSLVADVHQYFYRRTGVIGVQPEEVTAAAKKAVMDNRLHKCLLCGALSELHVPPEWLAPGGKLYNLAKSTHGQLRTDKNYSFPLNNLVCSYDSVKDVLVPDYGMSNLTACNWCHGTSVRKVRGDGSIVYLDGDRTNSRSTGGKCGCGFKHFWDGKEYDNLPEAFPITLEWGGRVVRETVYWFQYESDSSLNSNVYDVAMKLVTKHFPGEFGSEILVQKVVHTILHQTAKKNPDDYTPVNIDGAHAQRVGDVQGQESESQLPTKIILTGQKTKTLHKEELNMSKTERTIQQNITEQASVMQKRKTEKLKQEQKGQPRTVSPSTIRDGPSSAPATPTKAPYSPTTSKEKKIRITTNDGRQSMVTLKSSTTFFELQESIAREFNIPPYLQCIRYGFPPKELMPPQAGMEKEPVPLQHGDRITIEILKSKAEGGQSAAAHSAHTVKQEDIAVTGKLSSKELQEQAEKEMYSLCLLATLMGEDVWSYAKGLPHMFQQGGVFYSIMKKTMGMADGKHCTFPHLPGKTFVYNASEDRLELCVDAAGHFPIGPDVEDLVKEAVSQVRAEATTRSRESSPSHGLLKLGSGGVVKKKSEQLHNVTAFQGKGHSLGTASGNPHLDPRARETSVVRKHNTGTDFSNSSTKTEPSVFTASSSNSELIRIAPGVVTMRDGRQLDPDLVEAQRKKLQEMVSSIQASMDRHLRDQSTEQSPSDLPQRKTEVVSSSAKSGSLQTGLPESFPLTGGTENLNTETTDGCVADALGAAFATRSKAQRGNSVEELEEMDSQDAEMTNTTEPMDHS

BAP1 = molecular target: T4, BAP1 (Homo sapiens, UniProt Q92560); experiment: DUB-ABPP competition with biotin-Ub-PA / biotin-Ub-VME, TMT MS; format: biochemical; conditions: chloroacetamide; 50 µM
T4 construct: endogenous full-length protein in HEK293T lysate
T4 sequence (Q92560 1-729): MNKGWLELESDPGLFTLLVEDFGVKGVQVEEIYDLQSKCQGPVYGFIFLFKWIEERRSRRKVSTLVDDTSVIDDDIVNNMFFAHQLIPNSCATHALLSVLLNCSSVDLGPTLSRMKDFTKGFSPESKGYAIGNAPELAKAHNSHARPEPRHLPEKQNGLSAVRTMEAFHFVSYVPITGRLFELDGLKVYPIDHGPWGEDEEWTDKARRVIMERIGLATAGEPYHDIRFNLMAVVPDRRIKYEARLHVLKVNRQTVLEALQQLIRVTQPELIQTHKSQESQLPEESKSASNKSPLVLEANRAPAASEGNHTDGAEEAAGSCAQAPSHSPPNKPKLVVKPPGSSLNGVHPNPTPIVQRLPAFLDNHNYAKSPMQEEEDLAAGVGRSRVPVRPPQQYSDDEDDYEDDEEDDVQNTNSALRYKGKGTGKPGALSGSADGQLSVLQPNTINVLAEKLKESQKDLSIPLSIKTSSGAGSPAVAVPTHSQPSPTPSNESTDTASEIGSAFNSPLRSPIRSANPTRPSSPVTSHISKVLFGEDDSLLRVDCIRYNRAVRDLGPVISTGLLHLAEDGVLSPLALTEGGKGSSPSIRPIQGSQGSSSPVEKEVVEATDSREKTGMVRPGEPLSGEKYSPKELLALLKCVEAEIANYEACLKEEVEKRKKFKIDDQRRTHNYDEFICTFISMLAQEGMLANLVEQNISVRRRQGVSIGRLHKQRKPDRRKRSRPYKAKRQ

USP7 = molecular target: T5, USP7 (Homo sapiens, UniProt Q93009); experiment: as above; format: biochemical; conditions: covalent inhibitor
T5 construct: endogenous full-length protein in HEK293T lysate

USP22 = molecular target: T6, USP22 (Homo sapiens, UniProt Q9UPT9); design: ubiquitin-rhodamine cleavage by purified DUB, fluorescence initial rate, 6 h pre-incubation with inhibitor; conditions: n=1; inhibitor
T6 construct: purified enzyme
T6 sequence (Q9UPT9 1-525): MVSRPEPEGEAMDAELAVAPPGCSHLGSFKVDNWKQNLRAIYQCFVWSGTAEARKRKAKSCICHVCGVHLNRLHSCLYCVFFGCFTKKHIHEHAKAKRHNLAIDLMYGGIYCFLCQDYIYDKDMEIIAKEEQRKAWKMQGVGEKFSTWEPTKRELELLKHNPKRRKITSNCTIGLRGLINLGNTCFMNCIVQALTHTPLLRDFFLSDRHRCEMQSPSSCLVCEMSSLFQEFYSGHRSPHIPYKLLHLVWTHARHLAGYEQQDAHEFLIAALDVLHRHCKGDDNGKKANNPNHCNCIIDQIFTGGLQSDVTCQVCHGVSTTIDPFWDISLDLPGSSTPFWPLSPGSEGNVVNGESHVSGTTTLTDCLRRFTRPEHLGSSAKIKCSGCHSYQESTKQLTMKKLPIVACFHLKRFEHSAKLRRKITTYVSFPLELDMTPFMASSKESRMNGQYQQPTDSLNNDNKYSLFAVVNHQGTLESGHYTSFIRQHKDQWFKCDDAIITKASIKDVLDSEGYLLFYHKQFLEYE

T5 sequence (Q93009 whole entry): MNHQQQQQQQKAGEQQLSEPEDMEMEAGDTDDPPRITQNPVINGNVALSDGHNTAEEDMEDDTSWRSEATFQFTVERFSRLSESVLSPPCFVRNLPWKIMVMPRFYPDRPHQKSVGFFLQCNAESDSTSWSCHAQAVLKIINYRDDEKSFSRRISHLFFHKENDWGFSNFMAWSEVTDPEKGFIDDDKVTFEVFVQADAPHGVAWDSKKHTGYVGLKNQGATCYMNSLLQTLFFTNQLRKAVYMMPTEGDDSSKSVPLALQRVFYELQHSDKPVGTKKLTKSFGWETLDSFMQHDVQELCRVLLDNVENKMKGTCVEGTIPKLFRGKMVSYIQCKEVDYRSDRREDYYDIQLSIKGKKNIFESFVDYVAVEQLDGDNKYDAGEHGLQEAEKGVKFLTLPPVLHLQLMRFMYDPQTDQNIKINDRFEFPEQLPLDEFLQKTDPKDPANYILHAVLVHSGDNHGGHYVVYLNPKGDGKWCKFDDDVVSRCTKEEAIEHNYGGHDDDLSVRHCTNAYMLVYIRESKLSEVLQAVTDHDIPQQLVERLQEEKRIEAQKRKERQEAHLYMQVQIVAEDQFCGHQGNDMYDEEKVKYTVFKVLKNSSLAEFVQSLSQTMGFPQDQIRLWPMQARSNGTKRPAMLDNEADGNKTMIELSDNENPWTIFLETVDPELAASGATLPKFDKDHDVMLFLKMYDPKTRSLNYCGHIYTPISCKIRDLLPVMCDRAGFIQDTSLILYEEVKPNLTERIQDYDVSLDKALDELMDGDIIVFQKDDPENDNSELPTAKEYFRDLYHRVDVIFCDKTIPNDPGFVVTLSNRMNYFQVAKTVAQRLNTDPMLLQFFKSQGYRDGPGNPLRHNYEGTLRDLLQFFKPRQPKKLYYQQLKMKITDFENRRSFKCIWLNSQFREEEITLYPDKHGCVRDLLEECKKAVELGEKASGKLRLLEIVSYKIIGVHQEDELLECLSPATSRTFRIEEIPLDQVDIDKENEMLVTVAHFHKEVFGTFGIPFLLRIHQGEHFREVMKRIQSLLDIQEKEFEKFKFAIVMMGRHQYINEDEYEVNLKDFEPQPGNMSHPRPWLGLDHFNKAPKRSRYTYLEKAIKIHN

SMILES: N#CN1CCC(C(=O)Nc2cn(Cc3ccccc3)cn2)C1 (stereo not drawn) [SB1-F-22]
active-site cysteine modification (in-house validation) (UCHL1): validated in-house to modify the active site cysteine of UCHL1

SMILES: CN1CCN(CCC(=O)Nc2ccc3c(=O)n(CC4(O)CCN(C(=O)[C@@H](CCCNC(=O)c5ccc6c(Cl)c7c(nc6c5)CCCC7)Cc5ccccc5)CC4)cnc3c2)CC1 [XL177A]
DUB-ABPP competition with biotin-Ub-PA / biotin-Ub-VME, TMT MS (USP7): recapitulated the DUB binding profiles expected for our selective chemotypes

More lines, main results first:

DUB-ABPP competition with biotin-Ub-PA / biotin-Ub-VME, TMT MS (USP40): USP16 (V03), and USP40 (V08, V09)
SMILES: COc1ccc(C(=O)NCC2CN(C(=O)CCl)C2)cc1 [V08]

% target occupancy at 50 μM (VCPIP1): ~ 78%
SMILES: O=C(NCC1CN(C(=O)CCl)C1)c1ccccc1 [WH-9943-103C]
DUB-ABPP competition with biotin-Ub-PA / biotin-Ub-VME, TMT MS (BAP1): hit several DUBs including VCPIP1 (WH-9943-103C), BAP1 (WH-9943-103C)

pIC50 (USP22): 4.03
SMILES: O=C(CCl)N1CCC(O)(CNc2ncc3ccccc3n2)CC1 [XL_10320_009A]
